Results on nine molecules are retold here after ChEMBL document CHEMBL5335775, “Bioisosteric replacement of 1H-1,2,3-triazole with 1H-tetrazole ring enhances anti-leukemic activity of (5-benzylthiazol-2-yl)benzamides” (Eur J Med Chem, 2023).

Molecules are shown by their SMILES. Bounds are passed on as bounds.

In series [1] the test system is K562. Put plainly: Antiproliferative activity against human K562 cells assessed as inhibition of cell proliferation measured after 72 hrs by MTT assay. The format is functional, cell-based. The following applies: K562, 72 h. A general note: Tetrazolium assays rely on reduction of a dye to a coloured formazan, in cell work by metabolically active cells.
Series [2] is described as follows: Antiproliferative activity against human HaCaT cells assessed as inhibition of cell proliferation measured after 72 hrs by MTT assay. The format is toxicity, cell-based.
Series [3] in a line: Antiproliferative activity against NIH3T3 cells assessed as inhibition of cell proliferation measured after 72 hrs by MTT assay. The format is toxicity, cell-based. The following applies: mouse.
A short description of series [4]: Antiproliferative activity against J774.2 cells assessed as inhibition of cell proliferation measured after 72 hrs by MTT assay. The format is toxicity, cell-based. Particulars: mouse.
In a further series the test system is DU-145. Put plainly: Antiproliferative activity against human DU-145 cells assessed as inhibition of cell proliferation incubated for 3 days by Alamar blue dye based assay. The following applies: DU-145, 72 h. The format is functional. (In general: Alamar Blue is a resazurin reagent that responds to reducing activity.)
The subject of series [5] is K562. Put plainly: Anticancer activity against human K562 cells assessed as cell growth at 10^-5 M incubated for 48 hrs by SRB assay relative to control. The format is functional. Particulars: K562, 48 h, dose 1 10^-5M, read-out: Activity. Background: In SRB staining, fixed cells bind dye roughly in proportion to their protein.
Another series concerns NCI-H460. Put plainly: Anticancer activity against human NCI-H460 cells assessed as cell growth at 10^-5 M incubated for 48 hrs by SRB assay relative to control. Format: functional. The following applies: NCI-H460, 48 h, dose 1 10^-5M, read-out: Activity.
The subject of a further series is HCT-15. Put plainly: Anticancer activity against human HCT-15 cells assessed as cell growth at 10^-5 M incubated for 48 hrs by SRB assay relative to control. Particulars: HCT-15, 48 h, dose 1 10^-5M, read-out: Activity. The format is functional.
The subject of series [6] is KM12. Put plainly: Anticancer activity against human KM12 cells assessed as cell growth at 10^-5 M incubated for 48 hrs by SRB assay relative to control. The format is functional. The following applies: KM12, 48 h, dose 1 10^-5M, read-out: Activity.
For a further series, the system named is LOX IMVI. Put plainly: Anticancer activity against human LOX IMVI cells assessed as cell growth at 10^-5 M incubated for 48 hrs by SRB assay relative to control. The following applies: dose 1 10^-5M, read-out: Activity. Format: functional.
A further series relates to M14. In words: Anticancer activity against human M14 cells assessed as cell growth at 10^-5 M incubated for 48 hrs by SRB assay relative to control. The format is functional. The following applies: M14, 48 h, dose 1 10^-5M, read-out: Activity.
The test system of another series is MDA-MB-435. In words: Anticancer activity against human MDA-MB-435 cells assessed as cell growth at 10^-5 M incubated for 48 hrs by SRB assay relative to control. Format: functional. Particulars: MDA-MB-435, 48 h, dose 1 10^-5M, read-out: Activity.
For series [7], the system named is UACC-62. In words: Anticancer activity against human UACC-62 cells assessed as cell growth at 10^-5 M incubated for 48 hrs by SRB assay relative to control. The format is functional. Particulars: UACC-62, 48 h, dose 1 10^-5M, read-out: Activity.
Another series relates to ACHN. Put plainly: Anticancer activity against human ACHN cells assessed as cell growth at 10^-5 M incubated for 48 hrs by SRB assay relative to control. The format is functional. The following applies: dose 1 10^-5M, read-out: Activity.
The subject of series [8] is CAKI-1. Put plainly: Anticancer activity against human CAKI-1 cells assessed as cell growth at 10^-5 M incubated for 48 hrs by SRB assay relative to control. Format: functional. The following applies: CAKI-1, 48 h, dose 1 10^-5M, read-out: Activity.
For a further series, the system named is MCF7. In words: Anticancer activity against human MCF7 cells assessed as cell growth at 10^-5 M incubated for 48 hrs by SRB assay relative to control. The following applies: MCF7, 48 h, dose 1 10^-5M, read-out: Activity. Format: functional.
For series [9], the system named is MDA-MB-468. In words: Anticancer activity against human MDA-MB-468 cells assessed as cell growth at 10^-5 M incubated for 48 hrs by SRB assay relative to control. The format is functional. The following applies: MDA-MB-468, 48 h, dose 1 10^-5M, read-out: Activity.
Series [10] in a line: Selectivity index, ratio of IC50 for […] to IC50 for human K562 cells. Format: functional.
The subject of series [11] is MDA-MB-468. In words: Antiproliferative activity against human MDA-MB-468 cells assessed as inhibition of cell proliferation measured after 48 hrs by SRB assay. The following applies: MDA-MB-468, 48 h. Format: functional, cell-based.
The test system of another series is BT-549. In words: Antiproliferative activity against human BT-549 cells assessed as inhibition of cell proliferation measured after 48 hrs by SRB assay. The format is functional, cell-based. Particulars: BT-549, 48 h.
In another series the test system is OVCAR-4. In words: Antiproliferative activity against human OVCAR-4 cells assessed as inhibition of cell proliferation measured after 48 hrs by SRB assay. The format is functional, cell-based. Particulars: OVCAR-4, 48 h.
In the next series the test system is NCI/ADR-RES. Put plainly: Antiproliferative activity against human NCI-ADR-RES cells assessed as inhibition of cell proliferation measured after 48 hrs by SRB assay. The format is functional, cell-based.
The test system of series [12] is CAKI-1. In words: Antiproliferative activity against human CAKI-1 cells assessed as inhibition of cell proliferation measured after 48 hrs by SRB assay. The format is functional, cell-based. The following applies: CAKI-1, 48 h.
The next series deals with PC-3. Put plainly: Antiproliferative activity against human PC-3 cells assessed as inhibition of cell proliferation measured after 48 hrs by SRB assay. Format: functional, cell-based. The following applies: PC-3, 48 h.
In series [13] the test system is KM12. In words: Antiproliferative activity against human KM12 cells assessed as inhibition of cell proliferation measured after 48 hrs by SRB assay. Particulars: KM12, 48 h. Format: functional, cell-based.
The subject of a further series is SK-MEL-5. Put plainly: Antiproliferative activity against human SK-MEL-5 cells assessed as inhibition of cell proliferation measured after 48 hrs by SRB assay. The format is functional, cell-based. The following applies: SK-MEL-5, 48 h.
Series [14] concerns UACC-62. In words: Antiproliferative activity against human UACC-62 cells assessed as inhibition of cell proliferation measured after 48 hrs by SRB assay. Format: functional, cell-based. The following applies: UACC-62, 48 h.
The next series deals with Hep 3B2. Put plainly: Antiproliferative activity against human Hep3B cells assessed as inhibition of cell proliferation. The format is functional, cell-based.
The test system of the next series is T47D. Put plainly: Antiproliferative activity against human T47D cells assessed as inhibition of cell proliferation measured after 48 hrs by SRB assay. Format: functional, cell-based.
In another series the test system is HeLa. Put plainly: Antiproliferative activity against human HeLa cells assessed as inhibition of cell proliferation measured after 48 hrs by MTT assay. The format is functional, cell-based.

By IC50 is commonly meant the concentration that gives 50% inhibition. For the molecule `O=C(Nc1ncc(Cc2ccccc2)s1)c1ccc(-n2cnnn2)cc1O`, the IC50 in the series with K562 [1] was greater than 100 µM. Moreover, the half-inhibitory concentration (IC50) at 72 h in series [2] was greater than 100 µM; in series [3] it was greater than 100 µM; in series [4], 22.2 µM.
As to `COc1ccc(Cc2cnc(NC(=O)/C=C/c3ccco3)s2)cc1`, the IC50 in the series with DU-145 was 0.015 µM.
Take `COc1ccc(Cc2cnc(NC(=O)c3ccc(-n4cnnn4)cc3)s2)cc1`: in the series with K562 [5], the growth at 10 µM was found to be 36.7%. For the same molecule, in the series on K562 [1], the concentration for half-maximal inhibition (IC50) was greater than 100 µM. The IC50 at 72 h in series [2] was greater than 100 µM; in [3], greater than 100 µM; in [4] it was 8.22 µM.
For `Cc1cccc(Cc2cnc(NC(=O)c3ccc(-n4cnnn4)cc3)s2)c1`, the growth at 10 µM in the series with K562 [5] was 19.2%; in the series with NCI-H460 it was 25.8%; with HCT-15, 34.6%; in the series with KM12 [6] it was 30.2%; in the series on LOX IMVI it was 30.1%; in the series on M14, 33.8%. In addition, the growth at 10 µM in the series on MDA-MB-435 was 27.7%; in the series on UACC-62 [7], 12%; in the series on ACHN, 30.7%; in the series with CAKI-1 [8], 35.2%; with MCF7 it was 30.5%; in the series with MDA-MB-468 [9] it was 34.2%. Also, in the series on K562 [1], the IC50 turned out to be 20.1 µM. For the same molecule, the 50% inhibitory concentration (IC50) at 72 h in [2] was greater than 100 µM; in [3], greater than 100 µM; in series [4], 43.2 µM. The “Ratio IC50” value in [10] is reported as 2.1.
In the case of `Cc1cnnn1-c1ccc(C(=O)Nc2ncc(Cc3ccccc3)s2)cc1`, the half-inhibitory concentration (IC50) with MDA-MB-468 [11] is 2.02 µM; in the series with BT-549 it was 3.99 µM; in the series on OVCAR-4 it was 3.02 µM; in the series on NCI/ADR-RES it was 4.06 µM; with CAKI-1 [12], 4.7 µM; in the series on PC-3, 4.26 µM. The half-maximal inhibitory concentration (IC50) in the series with KM12 [13] was 3.68 µM; with SK-MEL-5, 2.8 µM; in the series with UACC-62 [14] it was 3.28 µM.
As to `O=C(CCc1ccco1)Nc1ncc(Cc2ccccc2)s1`, the half-maximal inhibitory concentration (IC50) with Hep 3B2 came to 0.089 µM.
Turning to `O=C(Nc1ncc(Cc2cccc(Cl)c2Cl)s1)c1cc2ccccc2o1`, the half-inhibitory concentration (IC50) with T47D stood at 0.0255 µM.
For the molecule `CC(C)(C)c1nc(NC(=O)CN2CCN(c3ccc(O)cc3)CC2)sc1Cc1ccc(Cl)cc1`, the IC50 in the series on HeLa stood at 1.6 µM.
On to `O=C(/C=C/c1ccc(-n2cnnn2)cc1)Nc1ncc(Cc2ccccc2)s1`, for which the IC50 with K562 [1] stood at 1.05 µM. Moreover, the concentration for half-maximal inhibition (IC50) at 72 h is 50.4 µM in series [2], greater than 100 µM in series [3] and 37.2 µM in [4]. In series [10], the “Ratio IC50” value was 35.5.
